Results from patent publication US7642367B2, “Diamino-functional chalcones” (Lica Pharmaceuticals A/S, priority 2002, dated 2010).
Values after ≈ are worked out from the molar mass of the structure shown. Where two headings read alike, the source gives them in different places.

Assays:
[1] = Determination of solubility in phosphate buffer pH 7.4; format: physicochemical; details: aqueous buffer at pH 7.4
Experimental: Solubility of the compounds was determined by preparing a saturated solution of compound in 0.3 M phosphate buffer (pH 7.4±0.3) in a brown glass tube. The suspensions were rotated slowly for 24 hours. Aliquots were centrifuged for 10 minutes at 14.000 rpm and supernatants were diluted in 40% (v/v) acetonitrile in water prior to HPLC analysis. Concentrations of analytes were quantified against a standard curve and used as term of solubility.
The HPLC-UV method used for the assessment of solubility is the same as used in the in vitro metabolism assay.

Plasmodium berghei K173 [2] = assay: Multiple intra venous administration in Plasmodium berghei K173 infected mice; format: in vivo; details: Plasmodium berghei K173 infected NMRI female mice, multiple intra venous administrations, FIG. 10
Experimental: The doses stated were administered intra venously as solutions in a suitable vehicle.

[3] = tested on: Plasmodium falciparum 3D7; assay: Plasmodium falciparum assay (3H-phenylalanine labelling); format: cell-based
[4] = Determination of metabolic stability (liver microsomes); format: in vitro ADME, Wistar rat; details: for Metabolic turn-over in vitro: rat liver microsomes, 20 μM, 15 min at 37° C.
Experimental: incubations were performed with Wistar rat liver microsomes (0.25 mg/ml) in 2% sodium bicarbonate solution. NADP (0.13 mg/ml), glucose-6-phosphate (0.63 mg/ml) and glucose-6-phosophate dehydrogenase (0.38 units/ml) were used as NADPH generation system and UDPGA (0.48 mg/ml) was added to include the phase II reaction, glucuronic acid conjugation, in the assay. After 5 minutes of pre-incubation the reaction was started by addition of the test article to give a final concentration of 20 μM. Samples were incubated for 15 min at 37° C. and the reactions were terminated by addition of equal volumes of acetonitrile. Blank incubations were performed at the same concentration but without addition of microsomes. Both blank and microsome-containing samples were made in replicats of three. Prior to analysis samples were centrifuged for 10 min. at 3500 rpm, HPLC system:
Initial conditions were 40% mobile phase A (acetonitrile) and 60% mobile phase B (10 mM ammonium acetate pH 9.5). During the first 20 minutes, the mobile phase was changed via a linear gradient to 90% A and 10% B. This was followed by a 5 minutes linear gradient to initial conditions, which were maintained for 5 min. The flow rate was 0.20 ml/min and injection volume 10 μl.

[5] = mice
[6] = tested on: Enterococcus faecium #17501 (vancomycin-resistant clinical isolate); assay: MIC determination in broth microdilution assay; details: E: Enterococcus faecium #17501 (vancomycin-resistant); NA: no activity
Eschericia coli ESS = assay: MIC determination in broth microdilution assay; details: H: Eschericia coli ESS; NA: no activity
non-fastidious bacteria = assay: Activity against non-fastidious bacteria (panel); details: pathogenic Gram-positive bacteria
[7] = tested on: Enterococcus faecalis ATCC29212; assay: MIC determination in broth microdilution assay; details: D: Enterococcus faecalis ATCC29212; NA: no activity
[8] = tested on: Staphylococcus intermedius #2357 (clinical isolate); assay: MIC determination in broth microdilution assay; details: C: Staphylococcus intermedius #2357; NA: no activity
[9] = tested on: Staphylococcus aureus ATCC33591 (resistant to methicillin); assay: MIC determination in broth microdilution assay; details: B: Staphylococcus aureus ATCC33591 (resistant to methicillin); NA: no activity
[10] = tested on: Eschericia coli ATCC25922; assay: MIC determination in broth microdilution assay; details: G: Eschericia coli ATCC25922; NA: no activity
[11] = tested on: Staphylococcus aureus ATCC29213; assay: MIC determination in broth microdilution assay; details: A: Staphylococcus aureus ATCC29213; NA: no activity
[12] = tested on: Streptococcus pneumoniae #998 (clinical isolate); assay: MIC determination in broth microdilution assay; details: F: Streptococcus pneumoniae #998; NA: no activity
[13] = tested on: Plasmodium falciparum DD2 (Cq-res); details: read-out: Plasmodium falciparum IC50
[14] = tested on: Plasmodium falciparum K1 (Cq-res); details: read-out: Plasmodium falciparum IC50
[15] = tested on: Plasmodium falciparum 7G8 (Cq-res); details: read-out: Plasmodium falciparum IC50
Plasmodium berghei K173 [16] = details: Plasmodium berghei K173 infected NMRI female mice, multiple oral administrations, FIG. 8
[17] = mice; remark: listed apart in the source

For `CN(C)CCN(C)c1cccc(/C=C/C(=O)c2ccccc2CN(C)C)c1` [B074, (E)-3-{3-[(2-Dimethylamino-ethyl)-methyl-amino]-phenyl}-1-(2-dimethylaminomethyl-phenyl)-propenone], the Solubility [1] was 15400 µg/mL (≈ 42.1 mM), the effect on parasitaemia (Plasmodium berghei K173 [2]) was “significant decrease in the parasitaemia” and the IC50 ([3]; Plasmodium falciparum 3D7 (Table 2), read-out: IC50) was 600 nM. For the same molecule, the “Metabolic turn-over in vitro” value [4] was 0%.

For `COc1ccccc1-c1ccc(/C=C/C(=O)c2ccc(O)c(CN(C)C)c2)c(N2CCN(C)CC2)c1` [B098, (E)-1-(3-Dimethylaminomethyl-4-hydroxy-phenyl)-3-[2′-methoxy-3-(4-methyl-piperazin-1-yl)-biphenyl-4-yl]-propenone], the bioavailability [5] was 50%.

For `Cc1cc(C)cc(-c2ccc(N3CCN(C)CC3)c(/C=C/C(=O)c3cccc(NCCN(C)C)c3)c2)c1` [B101, (E)-1-[3-(2-Dimethylamino-ethylamino)-phenyl]-3-[3′,5′-dimethyl-4-(4-methyl-piperazin-1-yl)-biphenyl-3-yl]-propenone], the MIC [6] was 4.7 µM (≈ 2.33 µg/mL), the MIC (Eschericia coli ESS) was 4.7 µM (≈ 2.33 µg/mL) and the “activity against Gram-positive non-fastidious bacteria” value (non-fastidious bacteria) was “increased potency”. It also gave an MIC [7] of 4.7 µM (≈ 2.33 µg/mL), an MIC [8] of 9.4 µM (≈ 4.67 µg/mL) and an MIC [9] of 4.7 µM (≈ 2.33 µg/mL). For the same molecule, the “Metabolic turn-over in vitro” value [4] was 3%, the MIC [10] was 9.4 µM (≈ 4.67 µg/mL) and the MIC [11] was 4.7 µM (≈ 2.33 µg/mL). It also gave an MIC [12] of 4.7 µM (≈ 2.33 µg/mL).

With `COc1ccc(C(=O)/C=C/c2cc(-c3ccccc3)cc(N3CCN(C)CC3)c2)c(CN(C)C)c1` [B111, (E)-1-(2-Dimethylaminomethyl-4-methoxy-phenyl)-3-[5-(4-methyl-piperazin-1-yl)-biphenyl-3-yl]-propenone] the Solubility [1] was 3100 µg/mL (≈ 6.6 mM), the IC50 ([3]; 3D7 (Cq-sen) (Table 3), read-out: Plasmodium falciparum IC50) was 1600 nM and the IC50 [13] was 1000 nM. For the same molecule, the IC50 [14] was 1000 nM, the “Metabolic turn-over in vitro” value [4] was 4% and the IC50 [15] was 1300 nM.

With `Cc1ccccc1-c1cc(/C=C/C(=O)c2ccccc2CN(C)C)cc(N(C)CCN(C)C)c1` [B119, (E)-3-{5-[(2-Dimethylamino-ethyl)-methyl-amino]-2′-methyl-biphenyl-3-yl}-1-(2-dimethylaminomethyl-phenyl)-propenone] the “effect on infection (parasitaemia)” value (Plasmodium berghei K173 [16]) was “inhibit the development of the infection”, the “metabolism” value [17] was 75% and the “metabolism” value ([4]; rat) was 8.6%. The “Metabolic turn-over in vitro” value [4] was 9%.
